Laboratory results: patent US20080113924A1, “Neuramindase Inhibitor” (priority 2004, published 2008)

Target: T1, Neuraminidase (Derived from Vibrio cholerae) (Vibrio cholerae serotype O1, UniProt P0C6E9)
T1 construct: host or cells: Vibrio cholerae (printed as 'Vibro-Choralie')
Test: Inhibition activity against neuraminidase (pre-incubation, p-nitrophenyl-α-N-acetyl neuraminic acid hydrolysis, absorbance 405 nm)
Format: biochemical
Conditions: irreversible inhibitor; pre-incubation 0, 10 or 30 min with 0-0.5 mM, pH 5.0; calculated from inhibition curve (FIG. 3); read-out: inhibition constant (Ki)
Experimental: Neuraminidase (50 μg) produced by Vibro-Choralie was pre-incubated in 50 mM phosphoric acid-tartaric acid buffer (pH 5.0, 10 μ1) together with the compound 6 (0, 0.05, 0.1, 0.2, and 0.5 mM), after 0, 10 or 30 minutes, 2 μl of the reaction solution was fractionated, respectively. The fractionated and pre-incubated solution was immediately incubated for 5 minutes in 50 mM phosphoric acid-tartaric acid buffer (pH 5.0, 50 μl) using 5 mM p-nitrophenyl-α-N-acetyl neuraminic acid. Then, glycine buffer (pH 11.0, […]) was added to each fractionated solution to stop the reaction. The amount of p-nitrophenol produced by hydrolysis reaction of neuraminidase was calculated by absorbance determination at 405 nm.

T1 sequence (P0C6E9 25-781): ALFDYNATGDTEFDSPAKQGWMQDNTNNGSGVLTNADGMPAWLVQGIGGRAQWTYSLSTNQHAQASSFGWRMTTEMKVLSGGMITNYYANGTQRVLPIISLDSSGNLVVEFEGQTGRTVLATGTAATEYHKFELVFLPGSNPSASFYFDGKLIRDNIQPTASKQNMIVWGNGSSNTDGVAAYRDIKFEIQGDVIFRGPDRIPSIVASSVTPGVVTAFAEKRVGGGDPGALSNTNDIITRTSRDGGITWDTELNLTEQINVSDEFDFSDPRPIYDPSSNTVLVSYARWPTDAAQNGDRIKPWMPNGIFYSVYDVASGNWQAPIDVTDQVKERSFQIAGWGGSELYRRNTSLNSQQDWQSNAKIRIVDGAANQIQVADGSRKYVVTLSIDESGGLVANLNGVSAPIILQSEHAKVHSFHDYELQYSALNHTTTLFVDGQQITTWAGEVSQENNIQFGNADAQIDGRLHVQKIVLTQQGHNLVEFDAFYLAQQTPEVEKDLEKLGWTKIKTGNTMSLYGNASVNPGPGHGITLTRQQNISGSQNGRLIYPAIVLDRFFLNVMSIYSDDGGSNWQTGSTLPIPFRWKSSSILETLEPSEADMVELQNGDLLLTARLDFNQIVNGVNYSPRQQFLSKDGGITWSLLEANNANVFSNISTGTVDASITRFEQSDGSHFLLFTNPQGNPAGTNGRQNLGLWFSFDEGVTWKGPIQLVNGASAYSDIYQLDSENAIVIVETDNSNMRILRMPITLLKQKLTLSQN

CC(=O)NC1C(O)CC(Oc2ccc(NS(=O)(=O)c3cccc4c(N(C)C)cccc34)cc2C(F)F)(C(=O)O)OC1C(O)C(O)CO (stereo not shown) [compound 6]
Ki: 1900 µM
